Reference: patent publication US12053465B2, “KCC2 expression enhancing compounds and uses thereof” (Whitehead Institute for Biomedical Research, priority 2017, dated 2024)

Assays:
KCC2 expression [1] = assay: Western blot of KCC2 in cultured WT human neurons; assay type: cell-based
KCC2 expression [2] = assay: Western blot of KCC2 in organotypic mouse brain slices; assay type: cell-based; conditions: organotypic neonatal mouse brain slices, treated 7 days, vs DMSO, MeBIO or medium-only control
human RTT neurons [3] = assay: mEPSC whole-cell patch-clamp recording in cultured human RTT neurons; assay type: cell-based; conditions: cultured human RTT neurons
Text: (§1) Moreover, a reduction in the number or the strength of excitatory glutamatergic synapses in RTT neurons has been observed in postmortem RTT patient brain samples (30), mouse models of RTT (53), and human stem cell-derived RTT neurons (54). Electrophysiology recording was utilized to assess whether KEECs could rescue the deficits in EGABA and excitatory synaptic transmission of RTT neurons. […] We further investigated whether the beneficial effect of KEECs is a direct result of the increases in neuronal KCC2 gene expression. […] Deficits in a number of morphological measurements, including nuclei size and neurite complexity and branching, are hallmarks of RTT neurons (54-56). […] To validate the morphological measurements, electrophysiological measurements of the neuronal membrane capacitance (Cm), an indicator of neuronal cell size (57) that is reduced in RTT neurons, were conducted.
(§2) Functionally mature human neuron cultures were obtained by seeding human WT or isogenic RTT NPCs on a layer of primary mouse astrocyte culture as previously described (57). In the cultured WT human neurons, KCC2 expression reaches mature level between 2-3 months (7). We therefore treated the WT or RTT human neurons 8-12 weeks in culture, with compounds for a duration of two weeks before conducting whole-cell patch-clamp recording. The extracellular bath solution, that perfused the recording chamber, consists of (in mM): 120 NaCl, 30 glucose, 25 HEPES, 5 KCl, 2 CaCl2, 1 MgCl2. The pH was adjusted to 7.3 with NaOH. The high-chloride internal pipette solution consists of (in mM): 147 KCl, 5 Na-phosphocreatine, 2 EGTA, 10 HEPES, 4 MgATP, and 0.5 Na2GTP; the pH 7.3 was adjusted with KOH. To record mini EPSC, the membrane potential was held at −70 mV, and 0.5 μM of TTX and 50 μM Picrotoxin were applied with bath solution to block action potential and GABAergic synaptic transmission.
To evoke GABA response, a pipette filled with 100 μM GABA solution was positioned 5-10 μm away from the neuronal cell body. Air pulses at the pressure of 10 p.s.i. and duration of 100 ms were generated with a Picrospritzer (Parker Instrumentation) to puff GABA solution onto neuronal cell body. Neuronal response to GABA puffs were recorded at different membrane holding potentials from −90 mV to +30 mV, and the EGABA values were calculated with linear regression. Electrophysiological signals were recorded with Multiclamp 700A patch-clamp amplifier and data were collected with Clamp 9 software (Molecular Devices, Palo Alto, CA), sampled at 10 kHz and filtered at 1 KHz. Off-line data analyses of mEPSC synaptic events were performed with MiniAnalysis software (Synaptosoft, Decator, GA). All experiments were performed at room temperature. A sample size of 5-8 neurons was used for EGABA measurements, while a sample size of 14-19 neurons was used for mEPSC measurements. All data were presented as mean±SEM. ANOVA test followed by the Bonferroni correction were used for statistical analysis. The Kolmogorov-Smirnov test was employed to compare the cumulative distribution between two datasets.

human RTT neurons [4] = assay: Membrane capacitance (Cm) of cultured human RTT neurons; assay type: cell-based; conditions: cultured human RTT neurons; vs DMSO or MeBIO control
Text: as §1, §2

[5] = test system: KCC2 expression (KCC2-2A-luciferase reporter); assay: KCC2-2A-luciferase reporter compound screening with wild type KCC2 reporter neurons; assay type: cell-based; conditions: WT human KCC2 reporter neurons; LINCS 0.5 μM, IRSF/SMART and ICCB 10 μM, one week; Luc/CTG normalized to in-plate DMSO; hit = B score >3
Text: In addition, CRISPR/Cas9 genome editing technology was utilized to insert a 2A-luciferase reporter gene directly before the stop codon of the endogenous KCC2 locus in human ES cells, thus creating wild type (WT) cells isogenic to the MECP2-null RTT human KCC2 reporter neurons. KCC2 expression reporter human neurons were differentiated from the gene-targeted ES cells and utilized as the substrate for unbiased compound screening (FIG. 6A; see also FIG. 1A).
Gene-targeted KCC2 reporter cells were used in a HTS pipeline to screen for small molecule compounds that enhance KCC2 gene expression (FIG. 1B; note that reporter neurons were adapted to 384 well format for some screens, and the same workflow was used both for WT KCC2 reporter neurons and RTT KCC2 reporter neurons). Six replicate screens were performed in WT KCC2 reporter neurons using the LINCS and SMART libraries as well as the ICCB known bioactive library (FIG. 6B).
(§3) The cells were dissociated with Accutase, resuspended in 10 ml neuronal differentiation medium to count cells. the final cell seeding density was 20 k-40 k cells per well for 96-well plates, and ˜10 k cells per well for 384-well plates. Matrigel was added to the cell suspension at a dilution ratio of 1:300 to promote cell adhesion after plating. AraC were added to the cell suspension at the concentration of 0.5 μM to inhibit astroglial cell division. The cells were dispensed into 96-well or 384-well plates (Coming) using a BioTek EL406 plate dispenser. […] The neurons were incubated with the compounds at 37° C./5% CO2 for a week before the luciferase assay.
For some screens, on the day of the luciferase assay, the cells were washed with PBS three times using a BioTek EL406 plate washer. Cell lysis buffer (Promega, E1941, 1:5 diluted with water) was added at a volume of 100 μl per well for 96-well plates and 30 μl per well for 384-well plates, and incubated at room temperature for 10 minutes to lyse the cells. A fraction of the cell lysate (30 ul for 96-well, 5 ul for 384-well) was transferred to a new white, opaque plate and Cell Titer-Glo (CTG, Promega, G7572, diluted 2:5 in water) was added and incubated for 20 minutes at room temperature. CTG measures cellular ATP levels as a surrogate for cell viability. The reporter luciferase signal was assayed in the original source plate using Bright-Glo reagent per the manufacturer's protocol (Promega, E1501, 10 ul for 96-well plates, 3 ul for 384-well plates). Assay readouts were performed on a Tecan M1000 Infinite plate reader. For data analysis, the luciferase signal was normalized to the CTG signal to control for number of live cells per well. The Luc/CTG ratio data were then normalized to the in-plate DMSO control to calculate the signal induction fold change. Screening data were processed with CellHTS2 software package to calculate B-score (94)

[6] = test system: KCC2 expression (KCC2-2A-luciferase reporter); assay: KCC2-2A-luciferase reporter compound screening with RTT KCC2 reporter neurons; assay type: cell-based, human; conditions: MECP2-null RTT human KCC2 reporter neurons; LINCS, SMART, ICCB libraries; Luc/CTG normalized to in-plate DMSO; hit = B score >3
Experimental: The RTT KCC2-2A-luciferase reporter neurons were treated with the test compounds from the LINCS kinase inhibitor library and IRSF SMART compound library and incubated before being lysed. The cell lysate was divided into two parts to measure luciferase signal (KCC2 translation) and Cell-Titer Glow (CTG, amount of ATP). The luciferase signal was normalized to CTG for each well, and the Luc/CTG ratio was normalized to the in-plate DMSO negative control to calculate fold change ratio.
Additional screens for reporter activation in the MECP2-null RTT human KCC2 reporter neurons (isogenic to the WT reporter cells used above) were performed with the LINCS and SMART libraries as well as the ICCB known bioactive library and identified hits as compounds with B score >3.
The cells were dissociated with Accutase and resuspended in 10 ml neuronal differentiation medium to count cells. The cells were then diluted to the final density of 200,000 to 500,000 cells/ml. Matrigel was added to the cell suspension at a dilution ratio of 1:300 to promote cell adhesion after plating. AraC was added to cell suspension at the concentration of 2 μM to inhibit cell division. The cells were plated into 96-well plates with an automated cell seeding machine using the following protocol: The neuron flask was washed with PBS. The neurons were digested off the plate with Accutase for 30 minutes at 37° C. Next, the dissociated cells were collected and spun down at 750 rpm for 5 minutes. The cell pellet was dissociated by gentle trituration with P1000 pipet and the cells were resuspended with 10 ml of neuronal medium. Then, the cells were filtered through a 40 μm cell strainer (Falcon) to get rid of clumps. The resulting single-cell suspension was counted using a Countess automated cell counter (Invitrogen Countess Automated Cell Counter, Catalog no. C10227). The neurons were resuspended with neuronal medium to 10× of the destination density (100,000 cells to 400,000 cells per ml). The cells were plated with a multichannel pipette, or proceeded to the machine-plating protocol described below:
The day after cell seeding, small molecule compounds from the IRSF (International Rett Syndrome Foundation) library were prepared at a concentration of 1 mM and dispensed into a blank V-bottomed test plates at 2 μl per well. Compound solvent DMSO was included in every plate as control. Using a liquid handling robot, about 80 μl of culture medium were discarded. Neuronal medium in the volume of 200 μl was added to the V-bottom test plate that contained 2 μl of 1 mM compounds, and mixed with compounds by pipetting up-and-down 3 times. The medium that contained the 10 μM compounds was then applied to the neuronal cell culture and incubated for 2 weeks before cell lysis and luciferase assay were performed.
as §3
The cells used for luciferase assay were KCC2 reporter neurons differentiated for 4 weeks, and treated with drug in 96-well format for 2 weeks. Cell density was between 20 k-40 k cells per well.
On the day of the luciferase assay, the cells were washed with PBS for two times, and 100 μl of cell lysis buffer was applied to the washed cells. The cell plates were transferred to a rocker to shake for 10 minutes in order to fully lyse the cells.

KCC2 expression [7] = assay: Western blot of KCC2 in cultured human RTT neurons; assay type: cell-based; conditions: cultured human RTT neurons; Western blot
Experimental: Protein samples were collected from cultured brain slices or cultured neurons in 12-well format with RIPA lysis buffer (in mM: 150 NaCl, 25 Tris-HCl, 1 EDTA, 1% NP-40, 1% sodium deoxycholate, 0.1% SDS, with protein kinase inhibitor and protease inhibitor, pH adjusted to 7.6). A sonication step was applied to homogenize tissue and extract protein, followed by a 10 minute centrifugation at 4° C. […] The PVDF membrane was blocked for 30 minutes with 5% milk in TBS+0.1% Tween 20 (TBST), and incubated overnight at 4° C. with primary antibodies diluted in TBST-milk at the following concentrations: KCC2 (1:2000, Millipore), NKCC1 (1:1000, Iowa Hybridoma bank), α-Tubulin (1:4000, Abcam), GAPDH (1:3000, Abcam), Actin (1:2000, Sigma Aldrich #A2066). The membrane was rinsed with TBST three times to wash off excess antibodies, and then incubated in secondary HRP antibodies in TBST-milk at 1:5000 concentration.
The PVDF membrane was then stripped using the Re-blot plus strong solution (Millipore), and re-immunoblotted for NKCC1 (˜150 kDa) to acquire KCC2/NKCC1 ratio. The area and intensity of protein signal was determined using ImageJ. The relative KCC2 and NKCC1 expression were calculated by normalizing protein signal to GAPDH or Tubulin loading control.

immature mouse neurons = assay: Gramicidin-perforated patch recording of EGABA in DIV6-7 immature mouse neurons; assay type: cell-based

SMILES: CN1C(=O)/C(=C2\Nc3ccccc3\C2=N/O)c2ccc(Br)cc21 [MeBIO]
- KCC2 expression (KCC2 expression [1]; cultured WT human neurons (WIBR1), Western blot): failed to activate KCC2 expression
- KCC2 protein level (KCC2 expression [2]): does not alter KCC2 expression
- frequency of mEPSCs (human RTT neurons [3]): failed to rescue synaptic deficits in RTT neurons
- membrane capacitance (Cm) (human RTT neurons [4]): failed to change Cm

SMILES: COc1cc2c(Oc3ccc(NC(=O)C4(C(=O)Nc5ccc(F)cc5)CC4)cc3F)ccnc2cc1OCCCN1CCOCC1 [Foretinib, N1′-[3-fluoro-4-[[6-methoxy-7-(3-morpholinopropoxy)-4-quinolyl]oxy]phenyl]-N1-(4-fluorophenyl)cyclopropane-1,1-dicarboxamide]
- B Score [5]: 4.05
- B Score [6]: 4.05

SMILES: O=c1cc(-c2ccccc2)oc2c(O)c(O)ccc12 [7,8-Dihydroxyflavone]
- B Score [5]: 4.01
- B Score [6]: 4.01

SMILES: Nc1cccc(-c2cc3c(Oc4cccc(O)c4)ncnc3[nH]2)c1 [TWS-119, 3-[6-(3-Amino-phenyl)-7H-pyrrolo[2,3,-d]pyrimidin-4-yloxy]-phenol]
- B Score [6]: 3.64
- KCC2 expression (KCC2 expression [7]): significant increase in KCC2 expression
- increase of KCC2 expression (KCC2 expression [1]; WT neurons, 0.03 μM): more than two-fold
- EGABA after treatment (immature mouse neurons; DIV6-7 immature mouse neurons, untreated about −50 mV): about −70 mV
- significant hyperpolarizing shift in EGABA (immature mouse neurons; DIV6 cultured immature mouse neurons): induces significant hyperpolarizing shift in EGABA

SMILES: O=C1Nc2ccccc2/C1=C1/Nc2ccccc2C1=O [Indirubin, (3Z)-3-(3-Oxo-1,3-dihydro-2H-indol-2-ylidene)-1,3-dihydro-2H-indol-2-one]
- B Score [5]: 3.73
- B Score [6]: 3.73
